In patent publication US6800659B2, “Compounds for modulating cell proliferation” (HSC Research and Development Limited Partnership, priority 2000, dated 2004):

Key:
normal bone marrow cells = test: CFU-GEMM assay: normal bone marrow differentiation in culture; assay type: cell-based
Method: (§1) The CFU-GEMM assay was performed according to Fauser and Messner (1978, Blood, 52(6) 143-8) and Messner and Fausser (1980, Blut, 41(5) 327-33) with some variations. In brief, heparinized bone marrow cells were layered over Percoll (1.077 gm/ml) (Pharmacia Fine Chemical, Piscataway N.J.) and centrifuged at 400 g at 4° C. for 10 minutes to remove neutrophils and RBCs. The fractionated BM cells at 2×10^5 cells/ml were cultured in IMDM (OCl, Toronto) containing 0.9% (vol/vol) methylcellulose supplemented with 30% FCS (Cansera Rexdale, ON.) or normal human plasma, a cocktail of cytokines containing G-CSF (10 ng/ml, Amgen), IL-3 (40 U/ml, Immunex), MGF (50 ng/ml, Immunex), Erythropoietin (2 u/ml, Epprex) or TPO (10 ng/ml, Amgen), 5×10^−5M β-2-mercaptoethanol and the specified concentration of CR4. The culture mixture was plated in 1 ml volumes into 35 mm petri dishes and incubated at 37° C., 5% CO2 in a humidified atmosphere. All cultures were evaluated at 14 days for the number of BFU-E colonies (defined as aggregates of more than 500 hemoglobinized cells or, 3 or more erythroid subcolonies), OFU-GM colonies (defined as granulocyte or monocyte-macrophage cells or both), CFU-Meg colonies (comprising 4 or more megakaryocytes) and CFU-GEMM colonies (a mixed population comprising of all elements).
as §1, with “1243-8)” for “143-8)”, “concentrations” for “concentration”, “CR19.” for “CR4.”, “hemaglobinized” for “hemoglobinized”, “subcolonies) and CFU-C” for “subcolonies), OFU-GM”, “both).” for “both), CFU-Meg colonies (comprising 4 or more megakaryocytes) and CFU-GEMM colonies (a mixed population comprising of all elements).”
as §1, with “1243-8)” for “143-8)”, “variations (British Journal of Haematology, 1992, 80, p40-48).” for “variations.”, “test compound.” for “CR4.”, “CO2,” for “CO2”, “subcolonies) and CFU-C” for “subcolonies), OFU-GM”, “both).” for “both), CFU-Meg colonies (comprising 4 or more megakaryocytes) and CFU-GEMM colonies (a mixed population comprising of all elements).”

OCl-LY2 lymphoma cells = test: Colony growth of OCl-LY2 lymphoma cells in methylcellulose culture; assay type: cell-based; conditions: colonies at 5 days (FIG. 7)
Method: OCl-LY2 cells were plated in 1 ml volumes, in the absence of exogenous growth factors, into 35 mm petri dishes (Nunc, Gibco) containing IMDM (OCl, Toronto) plus 20% human cord blood plasma in 0.9% (vol/vol) methylcellulose (Fluka, Switzerland) and the indicated doses of CR4. Cultures were set at 37° C., 5% CO2 in a humidified atmosphere. Colonies consisting of more than 20 cells were counted at 5 days or earlier using an inverted microscope.

[1] = system: Z119 acute lymphoblastic leukemia cells; test: In vitro purging of Z119 acute lymphoblastic leukemia; assay type: cell-based, human
Method: For the purging assay, the cells were resuspended in complete medium with or without CR4 as indicated and incubated at 37° C., 5% CO2 for 0-5 hours. Cells were then washed thoroughly with medium to remove the CR4, resuspended and plated in 1 ml volumes, in the absence of exogenous growth factors, into 35 mm petri dishes (Nunc, Gibco) containing alpha MEM (Gibco) plus 20% FCS (Cansera Rexdale, ON.) in 0.9% (vol/vol) methylcellulose (Fluka, Switzerland). Cultures were set at 37° C., 5% CO2 in a humidified atmosphere. Colonies consisting of more than 20 cells were counted at 9 days or earlier using an inverted microscope.

[2] = system: acute lymphoblastic leukemia, Philadelphia positive ALL, acute myeloid leukemia, myeloma and B-lineage lymphoma; test: Growth of cancer cells in culture, summary over cell types; assay type: cell-based
[3] = low nanomolar doses, long term exposure

`N#C/C(=C\C=C\c1ccc(O)c(O)c1)C(=O)NCc1ccccc1` [CR4, (E,E)-2-(benzylaminocarbonyl)-3-(3,4-dihydroxystyryl)acrylonitrile] was tested, and the CFU-GM colony numbers (normal bone marrow cells; 10 μM, 14 days (FIG. 1)) was “significantly stimulated”, the “inhibition of BFU-E colony formation” value (normal bone marrow cells; 10 μM, 14 days (FIG. 1)) was “some inhibition” and the “effect upon normal cell survival” value (normal bone marrow cells; at concentrations equivalent to those inhibiting AML-3 cells: 300-600 nM) was “no effect”. For the same molecule, the “effect upon normal cells” value (normal bone marrow cells; at concentrations equivalent to those inhibiting HuNS1 cells: high nanomolar to low micromolar (2.5 μM)) was “no effect”, the “effect upon normal cells” value (normal bone marrow cells; at concentrations equivalent to those inhibiting Ly-MN cells: nanomolar doses to 2.5 μM) was “no effect” and the “effect upon normal cells” value (normal bone marrow cells; at concentrations equivalent to those inhibiting OCl-LY2 cells: high nanomolar to low micromolar (2.5 μM)) was “no effect”. For the same molecule, the “effect upon normal cells” value (normal bone marrow cells; at concentrations equivalent to those inhibiting Ph+ ALL cells: low nanomolar doses (35-100)) was “no effect”, the “effect upon normal cells” value (normal bone marrow cells; at concentrations equivalent to those inhibiting Z119 cells: low nanomolar doses) was “no effect” and the “toxicity upon normal bone marrow” value (normal bone marrow cells; doses up to 5 μM, colonies at 14 days (FIG. 1)) was “negligible toxicity”. The “normal cell growth and differentiation” value (normal bone marrow cells; [3]) was “unaffected”, the “toxicity to normal cells incubated with compound” value (normal bone marrow cells; until concentrations of 10-20 μM or greater were achieved) was “minimal toxicity” and the inhibition at 2.5 µM (OCl-LY2 lymphoma cells; 120 h, 2.5 μM, read-out: inhibition of cell proliferation and survival) was 90%. For the same molecule, the “inhibition of cell proliferation and survival” value (OCl-LY2 lymphoma cells; high nanomolar to low micromolar doses) was “significantly inhibited”, the “killing of Z119 cells” value ([1]; 25 μM, 2.5 hours exposure (FIG. 15)) was 85% and the “subsequent cell growth of Z119 cells” value ([1]; 25 μM, five hour exposure (FIG. 15)) was “complete ablation”. The “inhibition of Z119 cell growth” value ([1]; 50 μM, 2.5 hours exposure (FIG. 15)) was “complete inhibition”, the “killing of Z119 cells” value ([1]; at the concentrations examined (25 and 50 μM), 0-5 hours (FIG. 15)) was “rapid killing” and the “effectiveness against a variety of cancer cells” value ([2]; concentrations ranging from 50 nM to 5 μM) was “highly effective”. For the same molecule, the “effectiveness against a variety of cell types (Acute Lymphoblastic Leukemia, Philadelphia positive Leukemia, Acute Myeloid Leukemia)” value ([2]; in culture) was “highly effective” and the “toxicity to cancer cells” value [2, 3] was “highly toxic”.
